Reference: patent publication US8669251B2, “8-fluorophthalazin-1(2H)-one compounds” (Genentech, Inc., priority 2011, dated 2014)

test system: production of CD69 by B lymphocytes in human whole blood; test: CD69 Whole Blood Assay (CD69 Hu Blood FACS); assay type: cell-based; conditions: human whole blood activated with goat F(ab')2 anti-human IgM, 20 hours; CD69 on CD20 positive cells by FACS; Table 2
Source text: A CD69 Whole Blood Assay can be conducted on Formula I compounds to determine the ability of compounds to inhibit the production of CD69 by B lymphocytes in human whole blood activated by crosslinking surface IgM with goat F(ab′)2 anti-human IgM (Example 907). CD69 is a type II C-type lectin involved in lymphocyte migration and cytokine secretion. CD69 expression represents one of the earliest available indicators of leukocyte activation and its rapid induction occurs through transcriptional activation (Vazquez et al (2009) Jour. of Immunology Published Oct. 19, 2009, doi:10.4049/jimmunol.0900839). Concentration-dependent inhibition of antigen receptor stimulation by selective Btk inhibitors induces cell surface expression of the lymphocyte activation marker CD69 (Honigberg et al (2010) Proc. Natl. Acad. Sci. 107(29):13075-13080). Thus, CD69 inhibition by selective Btk inhibitors may be correlated with therapeutic efficacy of certain B-cell disorders.
Human blood is obtained from healthy volunteers, with the following restrictions: 1 week drug-free, non-smokers. Blood (approximately 20 mls to test 8 compounds) is collected by venipuncture into Vacutainer® (Becton, Dickinson and Co.) tubes with sodium heparin.
Solutions of Formula I and II compounds at 10 mM in DMSO are diluted 1:10 in 100% DMSO, then are diluted by three-fold serial dilutions in 100% DMSO for a ten point dose-response curve. The compounds are further diluted 1:10 in PBS and then an aliquot of 5.5 μl of each compound is added in duplicate to a 2 ml 96-well plate; 5.5 μl of 10% DMSO in PBS is added as control and no-stimulus wells. Human whole blood —HWB (100 μl) is added to each well. After mixing the plates are incubated at 37° C., 5% CO2, 100% humidity for 30 minutes. Goat F(ab′)2 anti-human IgM (10 μl of a 500 μg/ml solution, 50 μg/ml final) is added to each well (except the no-stimulus wells) with mixing and the plates are incubated for an additional 20 hours. At the end of the 20 hour incubation, samples are incubated with fluorescent labeled antibodies for 30 minutes, at 37° C., 5% CO2, 100% humidity. Include induced control, unstained and single stains for compensation adjustments and initial voltage settings. Samples are then lysed with PharM Lyse™ (BD Biosciences Pharmingen) according to the manufacturer's instructions. Samples are then transferred to a 96 well plate suitable to be run on the BD Biosciences HTS 96 well system on the LSRII machine. Data acquired and Mean Fluorescence Intensity values were obtained using BD Biosciences DIVA Software. Results are initially analyzed by FACS analysis software (Flow Jo). […] The inhibitory concentration (IC50, IC70, IC90) values are calculated by Prism version 5, using a nonlinear regression curve fit.

Q: With Cc1cnc(Nc2cc(-c3ccnc(-n4ncc5cc(C(C)(C)C)cc(F)c5c4=O)c3CO)cn(C)c2=O)s1 [Compound 120, 6-tert-butyl-8-fluoro-2-[3-(hydroxymethyl)-4-[1-methyl-5-[(5-methylthiazol-2-yl)amino]-6-oxo-3-pyridyl]-2-pyridyl]phthalazin-1-one] as the compound, how does the CD69 Hu Blood FACS (IC70) read?
A: 139 nM

Q: How did the CD69 Hu Blood FACS (IC70) turn out when Cc1cc(Nc2cc(-c3ccnc(-n4ncc5cc(C(C)(C)C)cc(F)c5c4=O)c3CO)cn(C)c2=O)n[nH]1 [Compound 121, 6-tert-butyl-8-fluoro-2-[3-(hydroxymethyl)-4-[1-methyl-5-[(5-methyl-1H-pyrazol-3-yl)amino]-6-oxo-3-pyridyl]-2-pyridyl]phthalazin-1-one] was run?
A: 79.3 nM

Q: How did the CD69 Hu Blood FACS (IC70) turn out when CCc1cc(Nc2cc(-c3ccnc(-n4ncc5cc(C(C)(C)C)cc(F)c5c4=O)c3CO)cn(C)c2=O)nn1C [Compound 122, 6-tert-butyl-2-[4-[5-[(5-ethyl-1-methyl-pyrazol-3-yl)amino]-1-methyl-6-oxo-3-pyridyl]-3-(hydroxymethyl)-2-pyridyl]-8-fluoro-phthalazin-1-one] was run?
A: 37.5 nM

Q: For CCn1cc(Nc2nc(-c3ccnc(-n4ncc5cc(C(C)(C)C)cc(F)c5c4=O)c3CO)cn(C)c2=O)cn1 [Compound 123, 6-tert-butyl-2-[4-[6-[(1-ethylpyrazol-4-yl)amino]-4-methyl-5-oxo-pyrazin-2-yl]-3-(hydroxymethyl)-2-pyridyl]-8-fluoro-phthalazin-1-one], which CD69 Hu Blood FACS (IC70) is on record?
A: 156 nM

Q: With CC(=O)N1CCn2nc(Nc3cc(-c4ccnc(-n5ncc6cc(C(C)(C)C)cc(F)c6c5=O)c4CO)cn(C)c3=O)cc2C1 [Compound 124, 2-[4-[5-[(5-acetyl-6,7-dihydro-4H-pyrazolo[1,5-a]pyrazin-2-yl)amino]-1-methyl-6-oxo-3-pyridyl]-3-(hydroxymethyl)-2-pyridyl]-6-tert-butyl-8-fluoro-phthalazin-1-one] as the compound, how does the CD69 Hu Blood FACS (IC70) read?
A: 41.5 nM

Q: For Cc1cnc(Nc2cc(-c3ccnc(-n4ncc5cc(C(C)(C)C)cc(F)c5c4=O)c3CO)cn(C)c2=O)o1 [Compound 125, 6-tert-butyl-8-fluoro-2-[3-(hydroxymethyl)-4-[1-methyl-5-[(5-methyloxazol-2-yl)amino]-6-oxo-3-pyridyl]-2-pyridyl]phthalazin-1-one], which CD69 Hu Blood FACS (IC70) is on record?
A: 521 nM

Q: For Cn1nc(Nc2cc(-c3ccnc(-n4ncc5cc(C(C)(C)C)cc(F)c5c4=O)c3CO)cn(C)c2=O)cc1C1CC1 [Compound 126, 6-tert-butyl-2-[4-[5-[(5-cyclopropyl-1-methyl-pyrazol-3-yl)amino]-1-methyl-6-oxo-3-pyridyl]-3-(hydroxymethyl)-2-pyridyl]-8-fluoro-phthalazin-1-one], which CD69 Hu Blood FACS (IC70) is on record?
A: 44.5 nM

Q: Which CD69 Hu Blood FACS (IC70) does the source give for Cc1cc(Nc2cc(-c3ccnc(-n4ncc5cc(C(C)(C)C)cc(F)c5c4=O)c3CO)nn(C)c2=O)nn1C [Compound 127, 6-tert-butyl-2-[4-[5-[(1,5-dimethylpyrazol-3-yl)amino]-1-methyl-6-oxo-pyridazin-3-yl]-3-(hydroxymethyl)-2-pyridyl]-8-fluoro-phthalazin-1-one] here?
A: 115 nM

Q: CN1CCn2nc(Nc3cc(-c4ccnc(-n5ncc6cc(C(C)(C)C)cc(F)c6c5=O)c4CO)cn(C)c3=O)cc2C1 [Compound 128, 6-tert-butyl-8-fluoro-2-[3-(hydroxymethyl)-4-[1-methyl-5-[(5-methyl-6,7-dihydro-4H-pyrazolo[1,5-a]pyrazin-2-yl)amino]-6-oxo-3-pyridyl]-2-pyridyl]phthalazin-1-one] was tested. Which CD69 Hu Blood FACS (IC70) did it give?
A: 27.2 nM

Q: For Cc1cc(Nc2cc(-c3ccnc(-n4ncc5cc(C(C)(C)C)cc(F)c5c4=O)c3CO)cn(C)c2=O)no1 [Compound 129, 6-tert-butyl-8-fluoro-2-[3-(hydroxymethyl)-4-[1-methyl-5-[(5-methylisoxazol-3-yl)amino]-6-oxo-3-pyridyl]-2-pyridyl]phthalazin-1-one], which CD69 Hu Blood FACS (IC70) is on record?
A: 48.8 nM

Q: With Cn1cnc(Nc2cc(-c3ccnc(-n4ncc5cc(C(C)(C)C)cc(F)c5c4=O)c3CO)cn(C)c2=O)c1 [Compound 130, 6-tert-butyl-8-fluoro-2-[3-(hydroxymethyl)-4-[1-methyl-5-[(1-methylimidazol-4-yl)amino]-6-oxo-3-pyridyl]-2-pyridyl]phthalazin-1-one] as the compound, how does the CD69 Hu Blood FACS (IC70) read?
A: 152 nM

Q: Which CD69 Hu Blood FACS (IC70) does the source give for Cn1cc(-c2ccnc(-n3ncc4cc(C(C)(C)C)cc(F)c4c3=O)c2CO)cc(Nc2cc3n(n2)CCOC3)c1=O [Compound 131, 6-tert-butyl-2-[4-[5-(6,7-dihydro-4H-pyrazolo[5,1-c][1,4]oxazin-2-ylamino)-1-methyl-6-oxo-3-pyridyl]-3-(hydroxymethyl)-2-pyridyl]-8-fluoro-phthalazin-1-one] here?
A: 17.1 nM

Q: With C[C@@H]1COCCN1C(=O)c1ccc(Nc2cc(-c3ccnc(-n4ncc5cc(C(C)(C)C)cc(F)c5c4=O)c3CO)cn(C)c2=O)nc1 [Compound 132, 6-tert-butyl-8-fluoro-2-[3-(hydroxymethyl)-4-[1-methyl-5-[[5-[(3R)-3-methylmorpholine-4-carbonyl]-2-pyridyl]amino]-6-oxo-3-pyridyl]-2-pyridyl]phthalazin-1-one] as the compound, how does the CD69 Hu Blood FACS (IC70) read?
A: 14 nM

Q: Which CD69 Hu Blood FACS (IC70) does the source give for COCCN1CCn2nc(Nc3cc(-c4ccnc(-n5ncc6cc(C(C)(C)C)cc(F)c6c5=O)c4CO)cn(C)c3=O)cc2C1 [Compound 133, 6-tert-butyl-8-fluoro-2-[3-(hydroxymethyl)-4-[5-[[5-(2-methoxyethyl)-6,7-dihydro-4H-pyrazolo[1,5-a]pyrazin-2-yl]amino]-1-methyl-6-oxo-3-pyridyl]-2-pyridyl]phthalazin-1-one] here?
A: 14.5 nM

Q: Which CD69 Hu Blood FACS (IC70) does the source give for Cn1cc(-c2ccnc(-n3ncc4cc(C(C)(C)C)cc(F)c4c3=O)c2CO)cc(Nc2cc3n(n2)CCN(CC(F)(F)F)C3)c1=O [Compound 134, 6-tert-butyl-8-fluoro-2-[3-(hydroxymethyl)-4-[1-methyl-6-oxo-5-[[5-(2,2,2-trifluoroethyl)-6,7-dihydro-4H-pyrazolo[1,5-a]pyrazin-2-yl]amino]-3-pyridyl]-2-pyridyl]phthalazin-1-one] here?
A: 21.6 nM

Q: With Cn1cc(-c2ccnc(-n3ncc4cc(C(C)(C)C)cc(F)c4c3=O)c2CO)cc(Nc2cc3n(n2)CCN(CC(F)F)C3)c1=O [Compound 135, 6-tert-butyl-2-[4-[5-[[5-(2,2-difluoroethyl)-6,7-dihydro-4H-pyrazolo[1,5-a]pyrazin-2-yl]amino]-1-methyl-6-oxo-3-pyridyl]-3-(hydroxymethyl)-2-pyridyl]-8-fluoro-phthalazin-1-one] as the compound, how does the CD69 Hu Blood FACS (IC70) read?
A: 20 nM

Q: For C[C@H]1COCCN1C(=O)c1ccc(Nc2cc(-c3ccnc(-n4ncc5cc(C(C)(C)C)cc(F)c5c4=O)c3CO)cn(C)c2=O)nc1 [Compound 136, 6-tert-butyl-8-fluoro-2-[3-(hydroxymethyl)-4-[1-methyl-5-[[5-[(3S)-3-methylmorpholine-4-carbonyl]-2-pyridyl]amino]-6-oxo-3-pyridyl]-2-pyridyl]phthalazin-1-one], which CD69 Hu Blood FACS (IC70) is on record?
A: 14.5 nM

Q: C[C@H]1CN(C2COC2)CCN1c1ccc(Nc2cc(-c3ccnc(-n4ncc5cc(C(C)(C)C)cc(F)c5c4=O)c3CO)c[nH]c2=O)nc1 [Compound 138, 6-tert-butyl-8-fluoro-2-[3-(hydroxymethyl)-4-[5-[[5-[(2S)-2-methyl-4-(oxetan-3-yl)piperazin-1-yl]-2-pyridyl]amino]-6-oxo-1H-pyridin-3-yl]-2-pyridyl]phthalazin-1-one] was tested. Which CD69 Hu Blood FACS (IC70) did it give?
A: 12.4 nM

Q: Cn1cc(-c2ccnc(-n3ncc4cc(C(C)(C)C)cc(F)c4c3=O)c2CO)cc(Nc2cc3n(n2)CC(C)(C)OC3)c1=O [Compound 139, 6-tert-butyl-2-[4-[5-[(6,6-dimethyl-4,7-dihydropyrazolo[5,1-c][1,4]oxazin-2-yl)amino]-1-methyl-6-oxo-3-pyridyl]-3-(hydroxymethyl)-2-pyridyl]-8-fluoro-phthalazin-1-one] was tested. Which CD69 Hu Blood FACS (IC70) did it give?
A: 61.6 nM

Q: For Cn1ccc(Nc2cc(-c3ccnc(-n4ncc5cc(C(C)(C)C)cc(F)c5c4=O)c3CO)cn(C)c2=O)n1 [Compound 140, 6-tert-butyl-8-fluoro-2-[3-(hydroxymethyl)-4-[1-methyl-5-[(1-methylpyrazol-3-yl)amino]-6-oxo-3-pyridyl]-2-pyridyl]phthalazin-1-one], which CD69 Hu Blood FACS (IC70) is on record?
A: 68 nM

Q: Cc1cc(Nc2cc(-c3ccnc(-n4ncc5cc(C(C)(C)C)cc(F)c5c4=O)c3CO)nn(C)c2=O)no1 [Compound 141, 6-tert-butyl-8-fluoro-2-[3-(hydroxymethyl)-4-[1-methyl-5-[(5-methylisoxazol-3-yl)amino]-6-oxo-pyridazin-3-yl]-2-pyridyl]phthalazin-1-one] was tested. Which CD69 Hu Blood FACS (IC70) did it give?
A: 295 nM
